Test systems include HCC-2998 colon; M14 melanoma; MALME-3M melanoma; MDA-MB-435; RXF 393 renal; SN12C renal; U251 CNS; UACC-62 melanoma; UO-31 renal.
What all share (experiment): NCI tumour cell line growth inhibition, 48 h

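1) Cells in 96-well plates. 2) Compound, 48 h, 5 concentrations. 3) Linear interpolation between surrounding doses. 4) Unreached endpoint = highest concentration. TGI: total growth inhibition.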

Turning to `COc1ccc(C2SCC(=O)N2N=C2NC(=O)CC(=O)N2)cc1` (stereo not drawn), the TGI in the assay on HCC-2998 colon, with M14 melanoma, in the assay on MALME-3M melanoma, in the assay on MDA-MB-435, in the assay with RXF 393 renal and with SN12C renal was greater than 100 µM each time. Also, the TGI with U251 CNS, with UACC-62 melanoma and in the assay on UO-31 renal was greater than 100 µM each time.
On to `Cc1ncc([N+](=O)[O-])n1CCN(C)CCCCn1ccnc1[N+](=O)[O-]`, for which the TGI in the assay on HCC-2998 colon, in the assay on M14 melanoma, in the assay on MALME-3M melanoma, in the assay with MDA-MB-435, in the assay with RXF 393 renal and in the assay on SN12C renal was greater than 100 µM in each case. Besides, the TGI in the assay on U251 CNS, in the assay with UACC-62 melanoma and with UO-31 renal was greater than 100 µM each time.
Regarding `CN(C)CC1CCC/C(=C\c2ccc(N(C)C)cc2)C1=O` (stereo not drawn), the TGI was 29.4 µM with HCC-2998 colon; 9.46 µM with M14 melanoma; 24.5 µM in the assay on MALME-3M melanoma; 17.4 µM in the assay on MDA-MB-435; 21.2 µM in the assay with RXF 393 renal; 29.6 µM in the assay with SN12C renal. In addition, the figures for the TGI in the assay with U251 CNS, with UACC-62 melanoma and in the assay with UO-31 renal were 30.7 µM, 29.2 µM and 22.2 µM, respectively.
For `N#Cc1c(-c2ccco2)c2c(n(C3OC(CO)C(O)C(O)C3O)c1=S)CCCC2` (stereo not drawn), the TGI in the assay on HCC-2998 colon, with M14 melanoma, with MALME-3M melanoma, with MDA-MB-435, with RXF 393 renal and in the assay with SN12C renal was greater than 100 µM each time. The compound also yielded a TGI in the assay on UACC-62 melanoma greater than 100 µM.
Take `[N-]=N[N+]#I1OC(C(F)(F)F)(C(F)(F)F)c2ccccc21`: the TGI was 31.8 µM with HCC-2998 colon; greater than 100 µM in the assay on M14 melanoma; 34.2 µM in the assay on MDA-MB-435; 30.7 µM with RXF 393 renal; 30 µM in the assay with SN12C renal; 33.8 µM in the assay with U251 CNS. Further, the values for the TGI in the assay on UACC-62 melanoma and in the assay with UO-31 renal were 47.8 µM and 23.7 µM, respectively.
Consider `C/C(=N\Nc1nc2cc(C)ccc2s1)c1ccccn1`, for which the TGI is 28.5 µM with HCC-2998 colon; 3.68 µM in the assay with M14 melanoma; greater than 22 µM with MALME-3M melanoma; greater than 64.5 µM in the assay on MDA-MB-435; greater than 22.9 µM with RXF 393 renal; 8.85 µM with SN12C renal. The TGI in the assay with UO-31 renal came out at 11.1 µM.
For the compound `COC(=O)c1ccc(CN2CCc3c([nH]c4ccccc34)C2CO)o1` (stereo not drawn), the TGI in the assay on HCC-2998 colon, in the assay on M14 melanoma, in the assay on MALME-3M melanoma, with MDA-MB-435, with RXF 393 renal and in the assay with SN12C renal was greater than 10 µM in each case. In the assay on UACC-62 melanoma, this compound gave a TGI greater than 10 µM.
Take `COc1c2nc(CCl)n(C)c(=O)c2c(OC)c2c(=O)n(C)c(CCl)nc12`: the TGI was determined as 2.65 µM with HCC-2998 colon; 3.44 µM in the assay with MALME-3M melanoma; 7.65 µM with MDA-MB-435; 4.14 µM in the assay on RXF 393 renal; 3.56 µM in the assay with SN12C renal; 3.29 µM with U251 CNS. For the same compound, the TGI in the assay with UO-31 renal stood at 2.49 µM.
For `Nc1c(Br)cc(-c2cc(Br)c(N)c(Br)c2)cc1Br`, the TGI with HCC-2998 colon, in the assay with M14 melanoma, in the assay on MALME-3M melanoma, in the assay on MDA-MB-435, in the assay with RXF 393 renal and with SN12C renal was greater than 100 µM each time. The TGI with UACC-62 melanoma and in the assay on UO-31 renal was greater than 100 µM each time.
`O=S(=O)(O)c1cc(Cl)c(O)c2ncc(Cl)cc12`: the TGI with HCC-2998 colon, in the assay on M14 melanoma, with MDA-MB-435, with RXF 393 renal, in the assay on SN12C renal and with U251 CNS was greater than 100 µM in each case. The TGI with UACC-62 melanoma and in the assay with UO-31 renal was greater than 100 µM throughout.
As for `COc1cc2c(cc1OC)C(=O)N(c1ccc(O)cc1)C2`, the TGI with HCC-2998 colon, with M14 melanoma, in the assay on MALME-3M melanoma, in the assay with MDA-MB-435, with RXF 393 renal and with SN12C renal was greater than 100 µM in each case. Moreover, the TGI in the assay with U251 CNS and with UACC-62 melanoma was greater than 100 µM in each case.
For the compound `O=C1Nc2ccccc2C(=O)OC(Cc2ccccc2)=Nc2ccccc21`, the TGI in the assay with HCC-2998 colon, in the assay on M14 melanoma, in the assay on MDA-MB-435, in the assay with RXF 393 renal, in the assay on SN12C renal and in the assay on U251 CNS was greater than 100 µM throughout. Also, the TGI with UACC-62 melanoma and in the assay with UO-31 renal was greater than 100 µM in each case.
In the case of `Cc1c(C)c(C)c(-n2c(=O)n(C)c(=O)n2C(C)(C)C)c(C)c1C`, the TGI in the assay on HCC-2998 colon, in the assay on M14 melanoma, in the assay with MDA-MB-435, in the assay with RXF 393 renal, in the assay with SN12C renal and in the assay on U251 CNS was greater than 100 µM in each case. In addition, the TGI in the assay on UACC-62 melanoma and with UO-31 renal was greater than 100 µM throughout.

Source of the values: PubChem BioAssay (NCI).
